{"source": "the supplement of paper PMC10307832", "experiment_in_all_cases": "relative viability (nuclei count vs DMSO), 5 days (fraction); higher = more cells survive", "key": {"[1]": {"compound": "O=C(Nc1cc(C(F)(F)F)cc(C(F)(F)F)c1)c1cc(Cl)ccc1O [IMD-0354] + C[C@]1(O)C[C@@H](c2nc(-c3ccc4ccc(-c5ccccc5)nc4c3)c3c(N)nccn32)C1 [Linsitinib] (partner 1 µM)", "in_short": "(§1)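 Relative viability divides the nuclei count in treated wells by that in vehicle wells. Lung cancer cell lines were seeded in 1536-well plates, dosed by pin tool the next day, and fixed and stained after 5 days in one step with final 0.05% Triton X-100, 1% formaldehyde and 1 ug/ml Hoechst. Dosing was a single drug or a fixed anchor-drug dose plus five library-drug doses (not always all listed) in √10 steps, and values are medians of duplicate plates imaged at 4×.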"}, "[2]": {"compound": "Cc1cnc(CNC(=O)c2c(=O)c3ccc(N4CCCN(C)CC4)nc3n3c2sc2ccccc23)cn1 [CX-5461] + Nc1ncn([C@H]2C[C@H](O)[C@@H](CO)O2)c(=O)n1 [Decitabine] (partner 2 µM)", "in_short": "as §1"}, "[3]": {"compound": "Cc1cnc(CNC(=O)c2c(=O)c3ccc(N4CCCN(C)CC4)nc3n3c2sc2ccccc23)cn1 [CX-5461]", "in_short": "(§2)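 On vehicle-anchored 1536-well plates, lung cancer cell lines held overnight at 37 °C were pinned with five library-drug doses (not always all listed) spaced by √10. With no medium change over 5 days, they were then fixed, permeabilised and Hoechst-stained in one step and imaged at 4×. MetaXpress counted nuclei, and viability is the median across plates of treated-well over vehicle-well nuclei. Acceptance needed control CV below 25% and at least one doubling.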"}, "[4]": {"compound": "O=C(Nc1cc(C(F)(F)F)cc(C(F)(F)F)c1)c1cc(Cl)ccc1O [IMD-0354]", "in_short": "as §2"}}}
{"cell line": "UMC-11", "values": [{"measurement": "relative viability", "setting": "[1]; first compound 0.04 µM", "value": 1.04}, {"measurement": "relative viability", "setting": "[1]; first compound 0.1265 µM", "value": 1.04}, {"measurement": "relative viability", "setting": "[1]; first compound 0.4 µM", "value": 0.559}, {"measurement": "relative viability", "setting": "[1]; first compound 1.265 µM", "value": 0.254}, {"measurement": "relative viability", "setting": "[1]; first compound 4 µM", "value": 0.285}, {"measurement": "relative viability", "setting": "[2]; first compound 0.01 µM", "value": 0.611}, {"measurement": "relative viability", "setting": "[2]; first compound 0.03162 µM", "value": 0.464}, {"measurement": "relative viability", "setting": "[2]; first compound 0.1 µM", "value": 0.497}, {"measurement": "relative viability", "setting": "[2]; first compound 0.3162 µM", "value": 0.301}, {"measurement": "relative viability", "setting": "[2]; first compound 1 µM", "value": 0.36}, {"measurement": "relative viability", "setting": "[3]; 0.01 µM", "value": 1.09}, {"measurement": "relative viability", "setting": "[3]; 0.03162 µM", "value": 0.994}, {"measurement": "relative viability", "setting": "[3]; 0.1 µM", "value": 0.928}, {"measurement": "relative viability", "setting": "[3]; 0.3162 µM", "value": 0.909}, {"measurement": "relative viability", "setting": "[3]; 1 µM", "value": 0.382}, {"measurement": "relative viability", "setting": "[4]; 0.04 µM", "value": 1.1}, {"measurement": "relative viability", "setting": "[4]; 0.1265 µM", "value": 1.04}, {"measurement": "relative viability", "setting": "[4]; 0.4 µM", "value": 0.551}, {"measurement": "relative viability", "setting": "[4]; 1.265 µM", "value": 0.224}, {"measurement": "relative viability", "setting": "[4]; 4 µM", "value": 0.271}]}
